According to patent US6017956A, “N,N-disubstituted amic acid derivatives” (Banyu Pharmaceutical Co., Ltd., priority 1994, dated 2000):
pIC50: −log10 of the molar value.

Key:
[1] = test system: farnesyl-modification of Ras protein in NIH3T3 cells transformed by activated ras gene; assay: Inhibitory activities against farnesyl-modification of Ras protein in NIH3T3 cells transformed by activated ras gene; assay type: cell-based; conditions: Mus musculus, 24 hours, proportion of non-farnesyl-modified Ras protein by densitometer, read-out: 50% inhibitory concentrations against farnesyl-modification of Ras protein, IC50
Description: PHARMACOLOGICAL TEST EXAMPLE 2
(Inhibitory Activities Against Farnesyl-Modification of Ras Protein)
Using the compounds of the present invention, inhibitory activities against farnesyl-modification of Ras protein in NIH3T3 cells transformed by activated ras gene, were measured.
The NIH3T3 cells transformed by activated ras gene, were seeded on a culture plate and cultured for 3 days. Then, a compound of the present invention in a predetermined concentration was added to the culture. In accordance with the method disclosed in J. Biol. Chem., vol. 268, p. 18415 (1993), the cells were cultured for 24 hours and then taken off from the plate, and the cells were dissolved. After centrifugal separation for 5 minutes under 12000 g, the supernatant was used as a cell extract. The cell extract was subjected to SDS polyacrylamide gel electrophoresis to separate farnesyl-modified Ras protein and non-farnesyl-modified Ras protein. The protein on the gel was transferred onto a nitrocellulose membrane, and an anti-Ras protein antibody was reacted as a probe (primary antibody reaction). An anti-primary antibody, a peroxidase inclusion (secondary antibody), was reacted, and then Ras protein was detected by a chemical fluorescence enhancing kit. The proportion of non-farnesyl-modified Ras protein was quantified by a densitometer and taken as the inhibitory activity.
The 50% inhibitory concentrations (IC50 values) of the compounds of the present invention against farnesyl-modification of Ras protein as shown in Table

[2] = molecular target: T1, protein-farnesyl transferase (PFT) (Rattus norvegicus, UniProt Q02293+Q04631); assay: Inhibitory activities against protein-farnesyl transferase; assay type: biochemical; conditions: PFT derived from rat brain; prenyl acceptor H-ras protein or biotin-added Lys-Thr-Ser-Cys-Val-Ile-Met; 37° C., 20 minutes; read-out: 50% inhibitory concentrations against PFT activities, IC50
T1 construct: PFT derived from rat brain; from tissue; host or cells: rat brain, soluble fraction (30-50% ammonium sulfate cut, Q-Sepharose fraction)
Description: Inhibitory activities against protein-farnesyl transferase
PFT was separated in such a manner that a soluble fraction of rat's brain was fractionated by means of 30%-50% saturated ammonium sulfate, further dialyzed and then subjected to column chromatography by Q-cephalose™ (manufactured by Pharmacia) (Reiss et al, Cell, vol. 62, p. 81-88 (1990)).
(2) Method for measuring PFT activities
Measurement of PFT activities was conducted by using, as a prenyl acceptor, H-ras protein or a substance that biotin was added to N-terminal of a peptide corresponding to a 7 amino acid residue at C terminal of K-rasB protein (biotin-added Lys-Thr-Ser-Cys-Val-Ile-Met) and, as a prenyl doner, [^3 H]-labeled farnesylpyrophosphate (FPP) (Reiss et al, Methods: A Companion to a Methods in Enzymology, vol. 1, No. 3, p. 241-245 (1990)). […]
The enzymatic reaction product containing H-ras protein as the prenyl acceptor, was analyzed by SDS-PAGE (sodium dodecylsulfate/polyacrylamide gel electrophoresis). […]
The measurement of PFT activities using H-ras protein as the prenyl receptor, was also analyzed by a rapid separate method. […]

| pIC50 [2] | SMILES | pIC50 [1] |
| --- | --- | --- |
|  | CC(C)OC(=O)C(CCC(=O)O)=C(O)C(=O)N(Cc1ccc2ccccc2c1)[C@H](C)[C@H](Cc1ccc(C(=O)Nc2ccccc2)o1)c1ccc([N+](=O)[O-])cc1 (racemic) [Example 30, 5-hydroxy-4-isopropoxycarbonyl-5-[N-[(1RS,2RS)-1-methyl-2-(4-nitrophenyl)-3-{5-(phenylcarbamoyl)-2-furyl}propyl]-N-(2-naphthylmethyl)carbamoyl]-4-pentenoic acid] | 7.68 |
|  | C[C@H]([C@H](Cc1ccc(C(=O)Nc2ccccc2)o1)c1ccc([N+](=O)[O-])cc1)N(Cc1ccc2ccccc2c1)C(=O)C(O)=C(CC(=O)O)C(=O)OC(C)(C)C (racemic) [Example 25, 3-tert-butoxycarbonyl-4-hydroxy-4-[N-[(1RS,2RS)-1-methyl-2-(4-nitrophenyl)-3-{5-(phenylcarbamoyl)-2-furyl}propyl]-N-(2-naphthylmethyl)carbamoyl]-3-butenoic acid] | 7.68 |
|  | C=CCOC(=O)C(CC(=O)O)=C(O)C(=O)N(Cc1ccc2ccccc2c1)[C@H](C)[C@H](Cc1ccc(C(=O)Nc2ccccc2)o1)c1ccc2c(c1)OCO2 (racemic) [Example 29, 3-allyloxycarbonyl-4-hydroxy-4-[N-[(1RS,2RS)-1-methyl-2-(3,4-methylenedioxyphenyl)-3-{5-(phenylcarbamoyl)-2-furyl}propyl]-N-(2-naphthylmethyl)carbamoyl]-3-butenoic acid] | 8.33 |
| 8.74 | C[C@H]([C@H](Cc1cccc(C(=O)Nc2ccccc2)c1)c1ccc(Cl)cc1)N(Cc1ccc2ccccc2c1)C(=O)CC(CC(=O)O)C(=O)O (stereo partly drawn) [Example 10, N-{(1RS,2RS)-2-(4-chlorophenyl)-1-methyl-3-(3-phenylcarbamoylphenyl)propyl}-N-(2-naphthylmethyl)carbamoylmethylsuccinic acid] |  |
| 9.22 | C[C@H]([C@H](Cc1ccc(C(=O)Nc2ccccc2)o1)c1ccc([N+](=O)[O-])cc1)N(Cc1ccc2ccccc2c1)C(=O)CC(CC(=O)O)C(=O)O (stereo partly drawn) [Example 1, N-[(1-RS,2RS)-1-methyl-2-(4-nitrophenyl)-3-{5-(phenylcarbamoyl)-2-furyl}propyl]-N-(2-naphthylmethyl)carbamoylmethylsuccinic acid] |  |
